Results taken from patent US20250059205A1, “Heterocyclic Compounds and Methods of Use” (AMGEN INC., priority 2021, published 2025).
Read-outs that look alike come from different tables or passages of the source.

What was measured:
[1] = target: His-tagged KRAS G12D protein (Homo sapiens, UniProt P01116, G12D); assay: KRAS G12D TR-FRET Assay; format: binding
[2] = target: GDP-bound KRAS protein (aa 1-169), containing both G12D and C118A amino acid substitutions (Homo sapiens, UniProt P01116, C118A/G12D); assay: KRAS G12D Coupled Nucleotide Exchange Assay; format: biochemical; conditions: 2 h compound pre-incubation
Method: Following compound pre-incubation, purified SOS protein (aa 564-1049) and GTP (Roche 10106399001) were added to the assay wells and incubated for an additional 30 min. […] The assay plates were then read on a PerkinElmer EnVision Multilabel Reader, using AlphaScreen® technology, and data were analyzed using a 4-parameter logistic model to calculate IC50 values.

[3] = system: Phosphorylation of ERK1/2 in A-427 cells; assay: Phospho-ERK1/2 MSD Assay (A-427 cells); format: cell-based; conditions: 2 h treatment, read-out: p-ERK (A427 cells) IC50
In short: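 ERK1/2 phosphorylation measured by Meso Scale whole-cell lysate assay after A-427 cells were exposed to a titration of compound for 2 h at 37 °C.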

[4] = system: Phosphorylation of ERK1/2 in AsPC-1 cells; assay: Phospho-ERK1/2 MSD Assay (AsPC-1 cells); format: cell-based; conditions: 2 hours treatment, read-out: p-ERK (AsPC-1 cells) IC50
In short: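 Read-out: MSD electrochemiluminescent detection of phosphorylated ERK1/2 in whole-cell lysates, fitted to a 4-parameter logistic curve for IC50. Prior to lysis, AsPC-1 cells (25,000 per well) received a 2 h compound dose-response at 37 °C.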

His-tagged KRAS G12D protein, sequence (P01116 1-188 isoform P01116-2 G12D): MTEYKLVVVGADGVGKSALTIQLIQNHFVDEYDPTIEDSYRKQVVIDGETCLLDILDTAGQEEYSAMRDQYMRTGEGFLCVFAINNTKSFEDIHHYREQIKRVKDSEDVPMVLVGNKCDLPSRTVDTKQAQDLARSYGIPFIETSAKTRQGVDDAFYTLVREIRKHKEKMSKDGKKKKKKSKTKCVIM
GDP-bound KRAS protein (aa 1-169), containing both G12D and C118A amino acid substitutions, sequence (P01116 1-169 isoform P01116-2 G12D/C118A): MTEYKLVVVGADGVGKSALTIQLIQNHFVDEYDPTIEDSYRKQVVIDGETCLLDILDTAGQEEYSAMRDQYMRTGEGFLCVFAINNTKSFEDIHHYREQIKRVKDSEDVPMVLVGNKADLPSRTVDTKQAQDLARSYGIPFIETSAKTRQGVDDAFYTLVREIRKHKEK

| SMILES | IC50 [1] | Avg 2 h Coupled Exchange IC50 [2] | IC50 ([3]; Homo sapiens, A-427, 2 h) | IC50 ([4]; Homo sapiens, ASPC1, 2 h) | IC50 ([2]; read-out: Avg 2 h Coupled Exchange IC50) | IC50 [3] | IC50 [4] |
| --- | --- | --- | --- | --- | --- | --- | --- |
| CCc1c(F)ccc2cc(O)cc(-c3ccc4c(N5C[C@H]6CC[C@@H](C5)N6)cc(OC[C@@]56CCCN5C[C@H](F)C6)nc4c3F)c12 [Example 211, 4-(4-((1R,5S)-3,8-Diazabicyclo[3.2.1]octan-3-yl)-8-fluoro-2-(((2R,7aS)-2-fluorotetrahydro-1H-pyrrolizin-7a(5H)-yl)methoxy)quinolin-7-yl)-5-ethyl-6-fluoronaphthalen-2-ol] | 18 nM | 29 nM | 6290 nM | 8750 nM | – | – | – |
| CCc1c(F)ccc2cc(O)cc(-c3c(F)cc4c(N5C[C@H]6CC[C@@H](C5)N6)nc(OCC5(C)CCC(=O)O5)nc4c3F)c12 (stereo partly drawn) [Example 212, 5-(((4-((1R,5S)-3,8-Diazabicyclo[3.2.1]octan-3-yl)-7-(8-ethyl-7-fluoro-3-hydroxynaphthalen-1-yl)-6,8-difluoroquinazolin-2-yl)oxy)methyl)-5-methyldihydrofuran-2(3H)-one] | 2 nM | 3 nM | 514 nM | 784 nM | – | – | – |
| CCc1c(F)ccc2cc(O)cc(-c3c(F)cc4c(N5C[C@H]6CC[C@@H](C5)N6)nc(OCc5nccn5C)nc4c3F)c12 [Example 213, 4-(4-((1R,5S)-3,8-diazabicyclo[3.2.1]octan-3-yl)-6,8-difluoro-2-((1-methyl-1H-imidazol-2-yl)methoxy)quinazolin-7-yl)-5-ethyl-6-fluoronaphthalen-2-ol] | 11 nM | 6 nM | 1460 nM | 2300 nM | – | – | – |
| CCc1c(F)ccc2cc(O)cc(-c3c(F)cc4c(N5C[C@H]6CC[C@@H](C5)N6)nc(OCC(C)(O)CC)nc4c3F)c12 (stereo partly drawn) [Example 214, 4-(4-((1R,5S)-3,8-diazabicyclo[3.2.1]octan-3-yl)-6,8-difluoro-2-(2-hydroxy-2-methylbutoxy)quinazolin-7-yl)-5-ethyl-6-fluoronaphthalen-2-ol] | 13 nM | 5 nM | 1700 nM | 1210 nM | – | – | – |
| CCc1c(F)ccc2cc(O)cc(-c3c(F)cc4c(N5C[C@H]6CC[C@@H](C5)N6)nc(OC[C@@H]5CC(F)(F)CN5)nc4c3F)c12 [Example 217, 4-(4-((1R,5S)-3,8-diazabicyclo[3.2.1]octan-3-yl)-2-(((S)-4,4-difluoropyrrolidin-2-yl)methoxy)-6,8-difluoroquinazolin-7-yl)-5-ethyl-6-fluoronaphthalen-2-ol] | 4 nM | 4 nM | 218 nM | 414 nM | – | – | – |
| CCc1c(F)ccc2cc(O)cc(-c3c(F)cc4c(N5C[C@H]6CC[C@@H](C5)N6)nc(/C=C/C(C)(C)O)nc4c3F)c12 [Example 218, 4-(4-((1R,5S)-3,8-Diazabicyclo[3.2.1]octan-3-yl)-6,8-difluoro-2-((E)-3-hydroxy-3-methylbut-1-en-1-yl)quinazolin-7-yl)-S-ethyl-6-fluoronaphthalen-2-ol] | 6 nM | 6 nM | 1460 nM | 1140 nM | – | – | – |
| N#Cc1cc2c(N3C[C@H]4CC[C@@H](C3)N4)nc(OC[C@@]34CCCN3C[C@H](F)C4)nc2c(F)c1-c1cc(O)cc2ccccc12 [Example 219, 4-((1R,5S)-3,8-Diazabicyclo[3.2.1]octan-3-yl)-8-fluoro-2-(((2R,7aS)-2-fluorotetrahydro-1H-pyrrolizin-7a(5H)-yl)methoxy)-7-(3-hydroxynaphthalen-1-yl)quinazoline-6-carbonitrile] | 1 nM | 2 nM | 92 nM | 531 nM | – | – | – |
| Nc1cc2ccccc2c(-c2ccc3c(N4CC5CCC(C4)N5)nc(OC[C@@]45CCCN4C[C@H](F)C5)nc3c2F)n1 [Example 220] | 60 nM | 22 nM | 2860 nM | 4400 nM | – | – | – |
| Oc1cc(-c2ccc3c(N4C[C@H]5CC[C@@H](C4)N5)nc(OC[C@@]45CCCN4C[C@H](F)C5)nc3c2F)c2ccccc2c1F [Example 221, 4-(4-((1R,5S)-3,8-diazabicyclo[3.2.1]octan-3-yl)-8-fluoro-2-(((2R,7aS)-2-fluorotetrahydro-1H-pyrrolizin-7a(5H)-yl)methoxy)quinazolin-7-yl)-1-fluoronaphthalen-2-ol] | 1 nM | 1 nM | 139 nM | 325 nM | – | – | – |
| O=c1cc(-c2ccc3c(N4C[C@H]5CC[C@@H](C4)N5)nc(OC[C@@]45CCCN4C[C@H](F)C5)nc3c2F)c2ccccc2[nH]1 [Example 222, 4-(4-((1R,5S)-3,8-diazabicyclo[3.2.1]octan-3-yl)-8-fluoro-2-(((2R,7aS)-2-fluorotetrahydro-1H-pyrrolizin-7a(5H)-yl)methoxy)quinazolin-7-yl)quinolin-2-ol] | 255 nM | 74 nM | > 10000 nM | > 10000 nM | – | – | – |
| Nc1ccc(C(F)(F)F)c(-c2ccc3c(N4C[C@H]5CC[C@@H](C4)N5)nc(OC[C@@]45CCCN4C[C@H](F)C5)nc3c2F)n1 [Example 223, 6-(4-((1R,5S)-3,8-diazabicyclo[3.2.1]octan-3-yl)-8-fluoro-2-(((2R,7aS)-2-fluorotetrahydro-1H-pyrrolizin-7a(5H)-yl)methoxy)quinazolin-7-yl)-5-(trifluoromethyl) pyridin-2-amine] | 44 nM | 15 nM | 894 nM | 3030 nM | – | – | – |
| Nc1ccc(C2CC2)c(-c2ccc3c(N4C[C@H]5CC[C@@H](C4)N5)nc(OC[C@@]45CCCN4C[C@H](F)C5)nc3c2F)n1 [Example 224, 6-(4-((1R,5S)-3,8-diazabicyclo[3.2.1]octan-3-yl)-8-fluoro-2-(((2R,7aS)-2-fluorotetrahydro-1H-pyrrolizin-7a(5H)-yl)methoxy)quinazolin-7-yl)-5-cyclopropylpyridin-2-amine] | 274 nM | 41 nM | 7620 nM | > 10000 nM | – | – | – |
| Fc1c(-c2cc(C(F)F)cc3ccccc23)ccc2c(N3C[C@H]4CC[C@@H](C3)N4)nc(OC[C@@]34CCCN3C[C@H](F)C4)nc12 [Example 225, 4-((1R,5S)-3,8-diazabicyclo[3.2.1]octan-3-yl)-7-(3-(difluoromethyl)naphthalen-1-yl)-8-fluoro-2-(((2R,7aS)-2-fluorotetrahydro-1H-pyrrolizin-7a(5H)-yl)methoxy) quinazoline] | 57 nM | 44 nM | 79 nM | 256 nM | – | – | – |
| Cc1ccc2[nH]nc(N)c2c1-c1ccc2c(N3C[C@H]4CC[C@@H](C3)N4)nc(OC[C@@]34CCCN3C[C@H](F)C4)nc2c1F [Example 226, 4-(4-((1R,5S)-3,8-diazabicyclo[3.2.1]octan-3-yl)-8-fluoro-2-(((2R,7aS)-2-fluorotetrahydro-1H-pyrrolizin-7a(5H)-yl)methoxy)quinazolin-7-yl)-5-methyl-1H-indazol-3-amine] | 44 nM | 7 nM | > 10000 nM | > 10000 nM | – | – | – |
| N#Cc1cc(O)cc(-c2c(F)cc3c(N4C[C@H]5CC[C@@H](C4)N5)nc(OC[C@@]45CCCN4C[C@H](F)C5)nc3c2F)c1C1CC1 [Example 227, 3-(4-((1R,5S)-3,8-Diazabicyclo[3.2.1]octan-3-yl)-6,8-difluoro-2-(((2R,7aS)-2-fluorotetrahydro-1H-pyrrolizin-7a(5H)-yl)methoxy)quinazolin-7-yl)-2-cyclopropyl-5-hydroxybenzonitrile] | 3 nM | 4 nM | 48 nM | 308 nM | – | – | – |
| Nc1cc(Cl)c(C(F)(F)F)c(-c2ccc3c(N4C[C@H]5CC[C@@H](C4)N5)nc(OC[C@@]45CCCN4C[C@H](F)C5)nc3c2F)n1 [Example 228, 6-(4-((1R,5S)-3,8-Diazabicyclo[3.2.1]octan-3-yl)-8-fluoro-2-(((2R,7aS)-2-fluorotetrahydro-1H-pyrrolizin-7a(5H)-yl)methoxy)quinazolin-7-yl)-4-chloro-5-(trifluoromethyl)pyridin-2-amine] | 2 nM | 2 nM | 77 nM | 302 nM | – | – | – |
| Cc1cc(N)nc(-c2ccc3c(N4C[C@H]5CC[C@@H](C4)N5)nc(OC[C@@]45CCCN4C[C@H](F)C5)nc3c2F)c1C(F)(F)F [Example 229, 6-(4-((1R,5S)-3,8-Diazabicyclo[3.2.1]octan-3-yl)-8-fluoro-2-(((2R,7aS)-2-fluorotetrahydro-1H-pyrrolizin-7a(5H)-yl)methoxy)quinazolin-7-yl)-4-methyl-5-(trifluoromethyl)pyridin-2-amine] | 7 nM | 4 nM | 222 nM | 486 nM | – | – | – |
| CCc1c(F)ccc2cc(O)cc(-c3cc(C)c4c(N5C[C@H]6CC[C@@H](C5)N6)nc(OC[C@@]56CCCN5C[C@H](F)C6)nc4c3F)c12 [Example 230] | 4 nM | – | – | – | 1 nM | 33 nM | 68 nM |
